Patent US20120270928A1, “MICRORNA COMPOUNDS AND METHODS FOR MODULATING MIR-21 ACTIVITY” (REGULUS THERAPEUTICS INC., priority 2011, published 2012)
“And” between values parts separate entries of the source, which are not always exact repeats. Identical values can stand only once. “Also recorded” adds a separate entry of the source.

What was measured:
miR-21 = miR-21 luciferase sensor assay in Hela cells; type: cell-based
[1] = tested on: UUO model of kidney fibrosis; test: UUO model: collagen area fraction of kidney tissue (picrosirius red histology); type: in vivo, mice; settings: Table N, 25070 20 mg/kg s.c.
Procedure: Control treatment groups included UUO only (sham) and UUO with PBS administered subcutaneously. An additional control group included UUO with Tween-MC/20 carrier perorally. 25070 administered subcutaneously at dose of 20 mg/kg at 5 days prior to, 2 days prior to, and 3 days after, the UUO procedure. Irbesartan was administered perorally on daily on days 0 through 7 following the UUO procedure. Animals were sacrificed on Day 10 following the UUO procedure. Kidney tissue was collected for measurement of collagen 1A1 and collagen 3A1 expression.
The ‘collagen area fraction’ is measured histologically through quantitative image processing of the area of kidney tissue that is stained red by the picrosirius red stain; the percent detected as red is normalized by the area of kidney section.

[2] = tested on: model of ischemia reperfusion injury (IRI); test: Unilateral IRI model: collagen area fraction of kidney tissue; type: in vivo, mouse; settings: for reduction in collagen area fraction (significance): IRI; for Collagen Area Fraction (#) Mean: group mean; for Collagen Area Fraction (#): 20 mg/kg
Procedure: A model of ischemia reperfusion injury (IRI) is created in the mouse through unilateral or bilateral clamping of kidney arteries, which leads to tubule damage, inflammation, and fibrosis. Kidney dysfunction can occur either early (<5 days) or late (>7 days) in this model, with the early time points useful to test candidate agents for the treatment of acute kidney injury, and the later time points useful to model chronic fibrosis.
Anti-miR-21 compounds were tested in the unilateral IRI model. Unilateral IRI was induced for a period of 30 minutes. Treatment groups were as follows: sham IRI procedure; IRI with PBS administered subcutaneously; IRI with anti-miR-21 compound 25070 administered intraperitoneally at a dose of 20 mg/kg; the 2′-fluoro/2′-MOE modified anti-miR-21 25919 administered intraperitoneally at a dose of 20 mg/kg; and a 2′-fluoro/2′ modified mismatch anti-miR-21 (having three mismatches to the sequence of miR-21) 25319 administered intraperitoneally at a dose of 20 mg/kg. PBS or anti-miR compound was administered on days 5, 6, and 7 following IRI, and animals were sacrificed 14 days after IRI. As anti-miR compound is administered 5 days following the injury to the kidney, or later, when fibrosis has already occurred to some extent, this treatment regimen is considered a therapeutic regimen, rather than a prophylactic regimen.
Kidney tissue was collected for analysis of collagen 1A1 and collagen 3A1 expression (shown in Table 0), and collagen area fraction (shown in Table P).
A similar study was performed with the same treatment groups and additional days of treatment. In this study, treatments were administered intraperitoneally at days 5, 6, 7, 14, and 21 following the IRI procedure Animals were sacrificed on Day 27, and kidney tissue was collected for analysis of collagen 1A1 and collagen 3A1 expression, as well as collagen area fraction.

IR/Nx model mice = test: Survival rate of IR/Nx model mice two days after nephrectomy; type: in vivo
Procedure: The survival rate of IR/Nx model mice two days after nephrectomy was determined across six different experiments to determine if administration of anti-miR-21 compounds increases survival. In the first three experiments, anti-miR-21 compound was administered on days 5, 6, and 7 after ischemia reperfusion injury, and nephrectomy occurred on day 10 or day 11. In the second three experiments, anti-miR-21 compound was administered on days 2, 3, and 4, and nephrecromy occurred on day 7.

[3] = 4 nM oligonucleotide, Hela cells
[4] = 20 nM oligonucleotide, Hela cells
[5] = 100 nM oligonucleotide, Hela cells
[6] = 500 nM oligonucleotide, Hela cells, two experimental replicates
[7] = .16 nM oligonucleotide, Hela cells
[8] = .8 nM oligonucleotide, Hela cells
[9] = Table P, unilateral IRI, 20 mg/kg intraperitoneally on days 5, 6, 7, day 14, IRI-PBS mean 15.1
[10] = Table P, individual animals, unilateral IRI, 20 mg/kg intraperitoneally on days 5, 6, 7, day 14
[11] = unilateral IRI mouse, 20 mg/kg intraperitoneally on days 5, 6, 7, 14, and 21, sacrificed Day 27
[12] = individual animals (not same as PCR), unilateral IRI mouse, 20 mg/kg intraperitoneally on days 5, 6, 7, 14, and 21, sacrificed Day 27

## AECSATCSAGTCSTGAUSAAGCSTAE (ACATCAGTCTGATAAGCTA; modified nucleosides, phosphorothioate linkages, chemistry not fully specified) [Compound 25070]
miR-21; [3]
  luciferase value normalized to beta-galactosidase activity: 99
miR-21; [4]
  luciferase value normalized to beta-galactosidase activity: 128
miR-21; [5]
  luciferase value normalized to beta-galactosidase activity: 132
miR-21; [6]
  luciferase value normalized to beta-galactosidase activity: 165
miR-21; [7]
  luciferase value normalized to beta-galactosidase activity: 65
miR-21; [8]
  luciferase value normalized to beta-galactosidase activity: 87
miR-21; Hela cells
  inhibition of miR-21 activity in the luciferase assay (in words): inhibition of miR-21 in a dose-dependent manner; also recorded: potent inhibitor of miR-21 activity
miR-21; concentration of anti-miR compound 0.2 (unit not given)
  fold change in luciferase value relative to the mock treatment: 1.04 fold change
miR-21; concentration of anti-miR compound 0.6 (unit not given)
  fold change in luciferase value relative to the mock treatment: 1.01 fold change
miR-21; concentration of anti-miR compound 1.9 (unit not given)
  fold change in luciferase value relative to the mock treatment: 1.14 fold change
miR-21; concentration of anti-miR compound 5.6 (unit not given)
  fold change in luciferase value relative to the mock treatment: 6.22 fold change
miR-21; concentration of anti-miR compound 16.7 (unit not given)
  fold change in luciferase value relative to the mock treatment: 11.28 fold change
miR-21; concentration of anti-miR compound 50.0 (unit not given)
  fold change in luciferase value relative to the mock treatment: 11.00 fold change
[1]; group mean, irbesartan PO, Day 10, UUO-PBS 11.1, Tween/MC vehicle 8.0
  Collagen Area Fraction (%) Mean: 8.0%
[1]; individual animals, irbesartan PO daily days 0-7, Day 10, picrosirius red, 20 mg/kg
  Collagen Area Fraction (%): 7.632% and 9.937% and 8.015% and 6.611% and 6.319% and 11.272% and 6.803% and 7.405%
[2]; 20 mg/kg intraperitoneally on days 5, 6, and 7, sacrifice 14 days after IRI
  reduction in collagen area fraction (significance): statistically significant reduction
[2]; intraperitoneally at days 5, 6, 7, 14, and 21, sacrifice Day 27
  reduction in collagen area fraction (significance): statistically significant reduction
[2]; [9]
  Collagen Area Fraction (#) Mean: 9.7 #
[2]; [10]
  Collagen Area Fraction (#): 10.266 # and 11.772 # and 10.267 # and 8.404 # and 7.862 # and 6.975 # and 8.381 # and 13.773 #
[2]; [11]
  Collagen Area Fraction (#) Mean: 10.1
[2]; [12]
  Collagen Area Fraction (#): 7.354 and 9.241 and 9.589 and 11.573 and 8.182 and 10.695 and 13.978 and 10.12
IR/Nx model mice; Studies 1-3 pooled, Nx day 10/11, dosing days 5, 6, and 7
  Survival rate 2 days after Nx, Summary (day 10/11 Nx): 80% (29/36)
IR/Nx model mice; Studies 4-6 pooled, Nx day 7, dosing days 2, 3, and 4
  Survival rate 2 days after Nx, Summary (day 7 Nx): 69% (25/36)
IR/Nx model mice; Study 1, Nx Day 10, 30 mg/kg on days 5, 6, and 7 after IR
  Survival rate 2 days after Nx: 91.7%
IR/Nx model mice; Study 2, Nx Day 11, 30 mg/kg on days 5, 6, and 7 after IR
  Survival rate 2 days after Nx: 83.3%
IR/Nx model mice; Study 3, Nx Day 10, 20 mg/kg on days 5, 6, and 7 after IR
  Survival rate 2 days after Nx: 66.6%
IR/Nx model mice; Study 4, Nx Day 7, 20 mg/kg on days 2, 3, and 4 after IR
  Survival rate 2 days after Nx: 75%
IR/Nx model mice; Study 5, Nx Day 7, 20 mg/kg on days 2, 3, and 4 after IR
  Survival rate 2 days after Nx: 66.7%
IR/Nx model mice; Study 6, Nx Day 7, 20 mg/kg on days 2, 3, and 4 after IR
  Survival rate 2 days after Nx: 66.7%
IR/Nx model mice; first three experiments, dosing days 5, 6, 7, nephrectomy on day 10 or day 11
  survival rate two days after nephrectomy: 80%
IR/Nx model mice; second three experiments, dosing days 2, 3, 4, nephrectomy on day 7
  survival rate two days after nephrectomy: 69%

## UECEAFAFCFAFUFCFAFGFUFCEUEGEAFUFAFAFGFCFUEAE (antisense TCAACATCAGTCTGATAAGCTA; listed as DNA, chemistry not fully specified) [Compound 25919, reference compound]
miR-21; [3]
  luciferase value normalized to beta-galactosidase activity: 84
miR-21; [4]
  luciferase value normalized to beta-galactosidase activity: 114
miR-21; [5]
  luciferase value normalized to beta-galactosidase activity: 171
miR-21; [6]
  luciferase value normalized to beta-galactosidase activity: 202
miR-21; [7]
  luciferase value normalized to beta-galactosidase activity: 40
miR-21; [8]
  luciferase value normalized to beta-galactosidase activity: 53
[2]; [9]
  Collagen Area Fraction (#) Mean: 8.2 #
[2]; [10]
  Collagen Area Fraction (#): 7.093 # and 8.254 # and 8.095 # and 8.559 # and 8.681 # and 6.31 # and 8.416 # and 9.905 #
[2]; [11]
  Collagen Area Fraction (#) Mean: 12.8
[2]; [12]
  Collagen Area Fraction (#): 11.882 and 9.755 and 9.506 and 12.654 and 20.319 and 11.551 and 12.224 and 14.468
